The subject of data set [1] is NCI-H1975. Description: Growth inhibition of human NCI-H1975 cells at 10 uM under hypoxic conditions by IncuCyte zoom live cell analysis. Type of data set: functional, cell-based.
Data set [2] has as its target T1, L-lactate dehydrogenase A chain (Homo sapiens, UniProt P00338). As to the kind of experiment: Binding affinity to His-tagged human LDHA in absence of NAD+ by isothermal titration calorimetry.
In data set [3] the test system is NCI-H1975. As to the kind of experiment: Growth inhibition of human NCI-H1975 cells under hypoxic conditions by IncuCyte zoom live cell analysis. Type of data set: functional, cell-based.
The test system of data set [4] is NCI-H1975. Description: Growth inhibition of human NCI-H1975 cells under normal oxygenated conditions by IncuCyte zoom live cell analysis. In kind it is cell-based.
Data set [5] relates to A549. Description: Growth inhibition of human A549 cells at 50 uM incubated for 72 hrs by MTT assay. Type of data set: functional. To be noted: for inhibition of growth at 50 µM: A549, 72 h, read-out: GI.
Data set [6] addresses T1, L-lactate dehydrogenase A chain. As to the kind of experiment: Inhibition of His-tagged human LDHA at 10 uM incubated for 10 mins using NADH and pyruvate by microplate reader based assay.
Data set [7] has as its system NCI-H1975. Description: Growth inhibition of human NCI-H1975 cells at 10 uM under normal oxygenated conditions by IncuCyte zoom live cell analysis. In kind it is cell-based. The following applies: nci-h1975, 10 µM.
Data set [8] concerns NCI-H1975. Description: Growth inhibition of human NCI-H1975 cells at 50 uM incubated for 72 hrs by MTT assay. To be noted: for inhibition of growth at 50 µM: NCI-H1975, 72 h, read-out: GI. In kind it is functional.
Data set [9] deals with T1, L-lactate dehydrogenase A chain. As to the kind of experiment: Binding affinity to His-tagged human LDHA in presence of NAD+ by isothermal titration calorimetry. (ITC needs no label: the signal is the heat of the interaction.)
For data set [10] the target is unchanged. Description: Inhibition of LDHA in human NCI-H1975 cells assessed as reduction in lactate production incubated for 4 hrs. In kind it is cell-based.
For data set [11] the target is unchanged. As to the kind of experiment: Inhibition of His-tagged human LDHA incubated for 10 mins using NADH and pyruvate by microplate reader based assay.

Calls of active or inactive are those of the source. The calls are words filed in the database; no cut-off is given here.

The text below walks through data of ChEMBL document CHEMBL4433265, “Discovery of human lactate dehydrogenase 5 inhibitors (hLDH5) with anti-lung cancer activity through an in silico method and biological validation” (Bioorg Med Chem Lett, 2019).

The term Kd denotes the equilibrium constant for the complex coming apart. Broadly, the IC50 is the concentration needed to halve the response being measured. As a reminder, the inhibition is the change of the read-out against control, counted positive when it falls. By EC50 is commonly meant the midpoint of the concentration-response curve. Take `O=C(NCC(=O)N1CCC(Cc2nc(C3CC3)no2)CC1)c1ccccc1`: the “growth inhibition (GI)” value in data set [1] is “Active”. Further, the Kd is 43.2 µM in data set [2] and 1.02 µM in data set [9]. Further, the IC50 in [3] worked out at 5.7 µM; in [4], 36.5 µM. Also, the inhibition of growth at 50 µM in data set [5] stood at 69.3%; in [8] it was 58.7%. In addition, the inhibition in [6] was 95.2%; in [10], “Dose-dependent effect”. Moreover, in data set [7], the “growth inhibition (GI)” value is given as “Non-Toxic”. This compound showed an EC50 in data set [11] of 0.7 µM.

As to `COc1cc(=O)n2c(c1CCCc1cc(OC)c(OC)c(OC)c1)CCC2`, the “growth inhibition (GI)” value in data set [5] and in data set [8] was “inactive” in each case. This compound came in with an inhibition in [6] of 25.7%.

For the compound `O=C(CNC1CCN(c2ncc(F)cn2)CC1)COCc1ccccc1`, the inhibition of growth at 50 µM in data set [5] came to 55.3%; in data set [8], 39.8%. Also, the inhibition in [6] is 45.8%.

Regarding `N#Cc1cccnc1N1CCC(CNC(=O)C(=O)Nc2cccc(C(F)(F)F)c2)CC1`, the inhibition of growth at 50 µM in [5] turned out to be 33.5%; in data set [8] it was 25.9%. Besides, the inhibition result in data set [6] was “inactive”.

As for `O=C1N[C@](c2ccc(N3CCOCC3)cc2)(c2ccsc2)CC(O)=C1Sc1ccccc1Cl`, the inhibition of growth at 50 µM in data set [5] and in [8] was 100% throughout. The compound further returned an inhibition in data set [6] of 100%.

Consider `O=C(c1cc2n(n1)CCCO2)N1CCC(N2CCN(c3ncccc3C(F)(F)F)CC2)CC1`, for which the “growth inhibition (GI)” value in data set [5] and in data set [8] was “inactive” throughout. In [6], the inhibition result was “inactive”.

As for `COc1cccc(OCC(=O)Nc2ccc3c(c2)NC(=O)C(C)(C)CO3)c1`, the inhibition of growth at 50 µM in data set [5] turned out to be 26.9%; in [8] it was 15.3%. Also, the inhibition entry in data set [6] is “inactive”.

As for `O=C(c1cc2n(n1)CCCC2)N1CCN(C(=O)C2(c3cccs3)CCCC2)CC1`, the “growth inhibition (GI)” value in data set [5] and in [8] was “inactive” in each case. In addition, the inhibition result in [6] is “inactive”.

For the compound `Cc1ncn(CC(=O)N2CCC(Oc3cncc(N(C)C)n3)C2)c(=O)c1C` (stereo not drawn), the “growth inhibition (GI)” value in [5] and in [8] was “inactive” each time. Moreover, the inhibition in data set [6] was 66.3%.

`COc1ccccc1OCC(=O)NC1CCC(Oc2nc(C)cc(C)n2)CC1` (stereo not drawn): the inhibition of growth at 50 µM in data set [5] was found to be 23.3%; in data set [8] it was 45.2%. In data set [6], the inhibition came out at 78.5%.
